Laboratory results as given in patent US9963496B2, “Stable glucagon analogues and use for treatment of hypoglycaemia” (Novo Nordisk A/S, priority 2014, dated 2018).
*1 amine or outer side, *2 acyl side, *3 side chain or, on linkers, in order; H or OH if unused. Where a SMILES comes first, the peptide text is derived from it. Side-chain parts run from the residue outwards. [ ]: non-standard residue; d: D form. The star is where a group is joined. γGlu = O=C(O)[C@H](CCC(=O)[*:2])N[*:1]; Desaminohistidyl = O=C(CCc1c[nH]cn1)*; Aib = CC(C)(N)C(=O)O

What was measured:
[1] = molecular target: T1, human glucagon receptor (Homo sapiens, UniProt P47871); experiment: Assay (II)(b): glucagon receptor binding, 125I-glucagon displacement on isolated membranes (SPA); details: displacement of 125I-glucagon, membranes of BHK cells with human glucagon receptor, 2 h at 25° C.; read-out: IC50 hGlucagonR
T1 construct: expressed in transfected cells; host or cells: BHK cells, clone BHK hGCGR A3*25; isolated membranes
Experimental: (b) Glucagon Receptor Binding
The purpose of this assay was to test the in vitro receptor binding activity of the glucagon derivatives of the invention. The receptor binding activity is a measure of affinity of a derivative for the human glucagon receptor.
The receptor binding of each compound to the human glucagon receptor was measured in a displacement binding assay. In this type of assay a labelled ligand (in this case 125I-glucagon) is bound to the receptor. Each derivative is added in a series of concentrations to isolated membranes containing the human glucagon receptor and displacement of the labelled ligand is monitored. The receptor binding is reported as the concentration at which half of the labelled ligand is displaced from the receptor, the IC50 value.
HME buffer consisted of 25 mM HEPES, 2 mM MgCl2 and 1 mM EDTA, and pH was adjusted to 7.4. Binding buffer consisted of 50 mM HEPES supplemented with 5 mM MgCl2, 1 mM CaCl2, 0.02% Tween 20 and 0.1% Ovalbumin, and pH was adjusted to 7.4.
The cells used in this assay (clone BHK hGCGR A3*25) were BHK cells stable transfected with an expression plasmid containing the cDNA encoding the human glucagon receptor.
The cells were grown at 5% CO2 in DMEM, 10% fetal calf serum, 1% Pen/Strep (Penicillin/Streptomycin) and 1.0 mg/mL of the selection marker G418. To make a membrane preparation the cells were grown to approximately 80% confluence. The cells were washed twice in phosphate-buffered saline and harvested. The cells were pelleted using a brief centrifugation and the cell pellet was kept on ice. The cells were lysed by adding approx. 5 mL HME buffer, mix by pipetting and snap freeze in liquid nitrogen. The cell lysate was quickly thawed and HME buffer added to 10 mL. The cell pellet was homogenised with an ULTRA-THURRAX dispersing instrument for 20-30 seconds. The homogenate was centrifuged at 20,000×G, 4° C. for 10 minutes. The pellet was resuspended (homogenised) in 1-2 mL HME buffer. The protein concentration was determined. The membranes were aliquoted and snap frozen in liquid nitrogen and stored at minus 80° C.
• 1. For the receptor binding assay 50 μl of the assay buffer was added to each well of an assay plate. • 2. Test compounds were serially diluted to give the following concentrations: 8×10 EE-7 M, 8×10 EE-8 M, 8×10 EE-9 M, 8×10 EE-10 M, 8×10 EE-11 M, 8×10 EE-12 M and 8×10 EE-13 M. Twenty-five μl were added to appropriate wells in the assay plate. • 3. Cell membrane aliquots were thawed and diluted to their working concentration. Fifty μl were added to each well in the assay plate. • 4. WGA SPA beads were suspended in assay buffer at 20 mg/mL. The suspension was diluted to 10 mg/mL in assay buffer just prior to addition to the assay plate. Fifty μl were added to each well in the assay plate. • 5. The incubation was started by adding 25 μl of 480 pM solution of [125I]-glucagon to each well of the assay plate. A 25 μl aliquot was reserved for measuring total counts/well. • 6. The assay plate was incubated for 2 h at 25° C. • 7. The assay plate was centrifuged for 10 min at 1500 rpm. • 8. The assay plate was read in a Packard TopCount NXT instrument. Calculations
The data from the TopCount instrument were transferred to GraphPad Prism software. The software averaged the values for the replicates and performed a non-linear regression.

[2] = physchem; format: physicochemical; details: pH 7.5
Summary of the method: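 Peptide at 250 μM in 10 mM HEPES pH 7.5 with 1 μM Thioflavin T, incubated at 37° C with 960 rpm orbital shaking. ThT fluorescence (ex 444/em 485 nm) read every 20 min; lag-time (t0−2τ) and kapp (1/τ) from curve fit. Recovery is post-assay supernatant peptide by RP-HPLC as % of initial.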

T1 sequence (P47871 26-477): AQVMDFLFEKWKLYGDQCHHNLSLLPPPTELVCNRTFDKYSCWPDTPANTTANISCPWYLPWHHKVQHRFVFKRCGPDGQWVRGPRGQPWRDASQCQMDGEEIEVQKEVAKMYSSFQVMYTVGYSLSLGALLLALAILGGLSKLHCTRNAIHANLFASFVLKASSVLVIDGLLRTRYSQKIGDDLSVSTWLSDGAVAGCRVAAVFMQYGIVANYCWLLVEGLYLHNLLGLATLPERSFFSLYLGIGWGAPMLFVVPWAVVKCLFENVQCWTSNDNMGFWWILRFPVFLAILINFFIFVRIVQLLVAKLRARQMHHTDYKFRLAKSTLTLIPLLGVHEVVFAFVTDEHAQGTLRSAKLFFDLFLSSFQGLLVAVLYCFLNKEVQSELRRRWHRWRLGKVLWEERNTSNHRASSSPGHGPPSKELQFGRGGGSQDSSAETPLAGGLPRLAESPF

Row | Structure (SMILES) | IC50 [1] | recovery at 250 μM [2]
1 | CC(=O)N[C@@H](CCC(=O)N[C@@H](CCC(=O)N[C@@H](CCC(=O)N[C@@H](CCC(=O)NCCCC[C@H](NC(=O)[C@@H](NC(=O)[C@H](Cc1ccccc1)NC(=O)[C@H](CC(=O)O)NC(=O)[C@H](CCC(N)=O)NC(=O)[C@H](C)NC(=O)[C@H](CCCNC(=N)N)NC(=O)[C@H](CCCNC(=N)N)NC(=O)[C@H](CC(C)C)NC(=O)[C@H](CC(=O)O)NC(=O)[C@H](CC(C)C)NC(=O)[C@H](Cc1ccc(O)cc1)NC(=O)[C@H](CCCCN)NC(=O)[C@H](CO)NC(=O)[C@H](Cc1ccc(O)cc1)NC(=O)[C@H](CC(=O)O)NC(=O)[C@H](CO)NC(=O)[C@@H](NC(=O)[C@H](Cc1ccccc1)NC(=O)[C@@H](NC(=O)CNC(=O)[C@H](Cc1c[nH]cn1)NC(=O)C(C)(C)NC(=O)CCc1c[nH]cn1)[C@@H](C)O)[C@@H](C)O)C(C)C)C(=O)N[C@@H](Cc1c[nH]c2ccccc12)C(=O)N[C@@H](CC(C)C)C(=O)N[C@@H](CC(C)C)C(=O)N[C@@H](CO)C(=O)N[C@H](C(=O)O)[C@@H](C)O)C(=O)O)C(=O)O)C(=O)O)C(=O)O [Example 1, N^ϵ24-[(4S)-4-[[(4S)-4-[[(4S)-4-[[(4S)-4-acetamido-4-carboxybutanoyl]amino]-4-carboxybutanoyl]amino]-4-carboxybutanoyl]amino]-4-carboxybutanoyl]-[Imp1, Aib2, His3, Leu16, Lys24, Leu27, Ser28]-Glucagon] (Desaminohistidyl-[Aib]HGTFTSDYSKYLDLRRAQDFVK([γGlu-γGlu-γGlu-γGlu-Ac])WLLST-OH) | 0.2 nM | 101%
2 | CC(=O)N[C@@H](CCC(=O)N[C@@H](CCC(=O)N[C@@H](CCC(=O)N[C@@H](CCC(=O)NCCCC[C@H](NC(=O)[C@H](CC(C)C)NC(=O)[C@H](CC(C)C)NC(=O)[C@H](Cc1c[nH]c2ccccc12)NC(=O)[C@H](C)NC(=O)[C@@H](NC(=O)[C@H](Cc1ccccc1)NC(=O)[C@H](CC(=O)O)NC(=O)[C@H](CCC(N)=O)NC(=O)[C@H](C)NC(=O)[C@H](CCCNC(=N)N)NC(=O)[C@H](CCCNC(=N)N)NC(=O)[C@H](CO)NC(=O)[C@H](CCC(=O)O)NC(=O)[C@H](CC(C)C)NC(=O)[C@H](Cc1ccc(O)cc1)NC(=O)[C@H](CCCCN)NC(=O)[C@H](CO)NC(=O)[C@H](Cc1ccc(O)cc1)NC(=O)[C@H](CC(=O)O)NC(=O)[C@H](CO)NC(=O)[C@@H](NC(=O)[C@H](Cc1ccccc1)NC(=O)[C@@H](NC(=O)CNC(=O)[C@H](Cc1c[nH]cn1)NC(=O)C(C)(C)NC(=O)CCc1c[nH]cn1)[C@@H](C)O)[C@@H](C)O)C(C)C)C(=O)N[C@H](C(=O)O)[C@@H](C)O)C(=O)O)C(=O)O)C(=O)O)C(=O)O [Example 4, N^ϵ28-[(4S)-4-[[(4S)-4-[[(4S)-4-[[(4S)-4-acetamido-4-carboxybutanoyl]amino]-4-carboxybutanoyl]amino]-4-carboxybutanoyl]amino]-4-carboxybutanoyl]-[Imp1, Aib2, His3, Glu15, Ala24, Leu27, Lys28]-Glucagon] (Desaminohistidyl-[Aib]HGTFTSDYSKYLESRRAQDFVAWLLK([γGlu-γGlu-γGlu-γGlu-Ac])T-OH) | 1.8 nM | 100%
3 | CC(=O)N[C@@H](CCC(=O)N[C@@H](CCC(=O)N[C@@H](CCC(=O)N[C@@H](CCC(=O)NCCCC[C@H](NC(=O)[C@@H](NC(=O)[C@H](Cc1ccccc1)NC(=O)[C@H](CC(=O)O)NC(=O)[C@H](CCC(N)=O)NC(=O)[C@H](C)NC(=O)[C@H](CCCNC(=N)N)NC(=O)[C@H](CCCNC(=N)N)NC(=O)[C@@H](NC(=O)[C@H](CC(=O)O)NC(=O)[C@H](CC(C)C)NC(=O)[C@H](Cc1ccc(O)cc1)NC(=O)[C@H](CCCCN)NC(=O)[C@H](CO)NC(=O)[C@H](Cc1ccc(O)cc1)NC(=O)[C@H](CC(=O)O)NC(=O)[C@H](CO)NC(=O)[C@@H](NC(=O)[C@H](Cc1ccccc1)NC(=O)[C@@H](NC(=O)CNC(=O)[C@H](Cc1c[nH]cn1)NC(=O)C(C)(C)NC(=O)CCc1c[nH]cn1)[C@@H](C)O)[C@@H](C)O)C(C)C)C(C)C)C(=O)N[C@@H](Cc1c[nH]c2ccccc12)C(=O)N[C@@H](CC(C)C)C(=O)N[C@@H](CC(C)C)C(=O)N[C@@H](CO)C(=O)N[C@H](C(=O)O)[C@@H](C)O)C(=O)O)C(=O)O)C(=O)O)C(=O)O [Example 10, N^ϵ24-[(4S)-4-[[(4S)-4-[[(4S)-4-[[(4S)-4-acetamido-4-carboxybutanoyl]amino]-4-carboxybutanoyl]amino]-4-carboxybutanoyl]amino]-4-carboxybutanoyl]-[Imp1, Aib2, His3, Val16, Lys24, Leu27, Ser28]-Glucagon] (Desaminohistidyl-[Aib]HGTFTSDYSKYLDVRRAQDFVK([γGlu-γGlu-γGlu-γGlu-Ac])WLLST-OH) | 0.5 nM | 100%
4 | CC(=O)N[C@@H](CCC(=O)N[C@@H](CCC(=O)N[C@@H](CCC(=O)N[C@@H](CCC(=O)NCCCC[C@H](NC(=O)[C@@H](NC(=O)[C@H](Cc1ccccc1)NC(=O)[C@H](CCC(=O)O)NC(=O)[C@H](CCC(N)=O)NC(=O)[C@H](C)NC(=O)[C@H](CCCNC(=N)N)NC(=O)[C@H](CCCNC(=N)N)NC(=O)[C@H](CC(C)C)NC(=O)[C@H](CC(=O)O)NC(=O)[C@H](CC(C)C)NC(=O)[C@H](Cc1ccc(O)cc1)NC(=O)[C@H](CCCCN)NC(=O)[C@H](CO)NC(=O)[C@H](Cc1ccc(O)cc1)NC(=O)[C@H](CC(=O)O)NC(=O)[C@H](CO)NC(=O)[C@@H](NC(=O)[C@H](Cc1ccccc1)NC(=O)[C@@H](NC(=O)CNC(=O)[C@H](Cc1c[nH]cn1)NC(=O)[C@H](CO)NC(=O)CCc1c[nH]cn1)[C@@H](C)O)[C@@H](C)O)C(C)C)C(=O)N[C@@H](Cc1c[nH]c2ccccc12)C(=O)N[C@@H](CC(C)C)C(=O)N[C@@H](CC(C)C)C(=O)N[C@@H](CO)C(=O)N[C@H](C(=O)O)[C@@H](C)O)C(=O)O)C(=O)O)C(=O)O)C(=O)O [Example 8, N^ϵ24-[(4S)-4-[[(4S)-4-[[(4S)-4-[[(4S)-4-acetamido-4-carboxybutanoyl]amino]-4-carboxybutanoyl]amino]-4-carboxybutanoyl]amino]-4-carboxybutanoyl]-[Imp1, His3, Leu16, Glu21, Lys24, Leu27, Ser28]-Glucagon] (Desaminohistidyl-SHGTFTSDYSKYLDLRRAQEFVK([γGlu-γGlu-γGlu-γGlu-Ac])WLLST-OH) | 0.2 nM | 103%
